Results from paper PMC10531095, “Photonics of Some Monomethine Cyanine Dyes in Solutions and in Complexes with Biomolecules” (International Journal of Molecular Sciences, 2023).

What was measured:
[1] = tested on: dsDNA; experiment: Spectral fluorescent titration of the dyes with dsDNA in PBS; format: binding, chick; conditions: for Ifl/Ifl0, relative increase in the fluorescence intensity: cdsDNA = 1 × 10^−4 mol L^−1; for φfl^b, fluorescence quantum yield of the dye in the presence of biopolymer: cdsDNA~5 × 10^−5 mol L^−1; for KeffHill, effective complexation constant (Hill) / KeffBH, effective complexation constant (Benesi–Hildebrand): PBS buffer; for KeffBH, effective complexation constant (Benesi–Hildebrand): fluorescent titration; for αb, proportion of bound dye: cbiomol = 5 × 10^−5 mol L^−1; for K2Sc, complexation constant (Scatchard): constant and nSc both varied; for Fmax/F0, fluorescence growth at 100% binding: from the Benesi–Hildebrand dependence; for K1Sc, complexation constant (Scatchard): nSc = const = 10 b.p.
Description: Complexation of MCD 1–4 with DNA (double-stranded and single-stranded) and with human serum albumin (HSA) was studied by spectral fluorescent methods in a wide range of biopolymer concentrations (cdsDNA = 0–1.5 × 10^−4 mol L^−1; cssDNA = 0–1.4 × 10^−4 mol L^−1; cHSA = 0–1.4 × 10^−4 mol L^−1 in PBS buffer). The absorption, fluorescence, and fluorescence excitation spectra of MCD 1 and 3 in the presence of dsDNA are shown in Figure 3 and Figure 4, respectively.
The complication of chemical equilibrium, and the variety of interactions between MCD and biopolymer (dye aggregation/deaggregation, the possibility of forming complexes of several types with DNA/HSA) makes it problematic to determine the exact values of the complexation constants of the dyes with DNA. The values of the effective equilibrium constants of the complexation reaction of MCD with biopolymers (Keff, L mol^−1, see Table 7) were estimated from spectral fluorescent data. In this case, we had to assume a simple equilibrium MCD (monomer, free) ⇄ MCD (monomer, bound). For these purposes, we used the Benesi–Hildebrand [59], Hill, and Scatchard formalisms (See Supplementary Materials, Equations (S9)–(S13)). For dsDNA, fitting according to the modified Scatchard equation was carried out assuming one dye molecule per one DNA turn (K1Sc at nSc = const = 10 b.p.), as well as varying both the constant (K2Sc) and the stoichiometric coefficient (nSc). In the case of ssDNA, nSc is given per one base; for HSA, nSc = 1.
Single-stranded form of DNA (single-stranded DNA; ssDNA) was obtained according to the method described in [74]. The concentrations of DNA and the dyes were controlled spectrophotometrically. Molar extinction coefficient of dsDNA (ε, L⋅mol^−1⋅cm^−1) was taken to be 13,200 L mol^−1 cm^−1 (per base pair); for ssDNA, ε = 9045 L mol^−1 cm^−1 (per one base) was used. For MCD 1 and 2 in an aqueous buffer solution, we used extinction coefficients ε = 40,000 and 68,000 L mol^−1 cm^−1, respectively, which were taken from. For MCD 3 and 4, the molar extinction coefficients in ethanol solution were 69,200 and 49,000 L mol^−1 cm^−1 (taken from). […] Spectral fluorescent characteristics of MCD in complexes with biomacromolecules were studied by titration of dye solutions (see Supplementary Materials). The thermal dissociation (“melting”) of dsDNA in the presence of MCD was studied spectrophotometrically (λabs = 260 nm), the sample was heated (t° = 30–95 °C) using Peltier cells, and the temperature was controlled using a thermocouple. Melting points tm, corresponding to 50% hyperchromia of DNA samples were obtained.
Absorption spectra were recorded on an SF-2000 spectrophotometer (Experimental-Construction Company “Spectrum”, St. Petersburg, Russia); fluorescence and fluorescence excitation spectra were recorded on a Fluorat-02-Panorama spectrofluorimeter (Group of Companies “Lumex”, St. Petersburg, Russia). The fluorescence and fluorescence excitation spectra were corrected for the spectral characteristics of the instrument (excitation channel signal) and sample transmission. Changes in the intrinsic fluorescence of HSA upon binding of MCD (in the presence of the dyes) were recorded in the synchronous fluorescence scanning (SFS) mode. In SFS mode, when registering spectra, a fixed difference Δλ= λfl − λex is maintained for the channels of excitation and registration. Synchronous scanning spectra were obtained at Δλ = 15 nm (fluorescence of tyrosine residues in the HSA molecule) and Δλ = 60 nm (fluorescence of tryptophan). The spectra were measured in 1 cm quartz semi-micro cells (Bio-Rad, Hercules, CA, USA).
The equilibrium constants of MCD complexation with biomolecules (Ka, L mol^−1) were obtained from fluorescence spectra using the Benesi–Hildebrand [59], Hill, and Scatchard equations [61] (see Supplementary Materials, Equations (S9)–(S13)). […]

[2] = tested on: dsDNA; experiment: Flash photolysis: triplet state of MCD in the presence of dsDNA; set-up: species or system chick; conditions: for k1, decay rate constant of the T state (first exponent) / k2, decay rate constant of the T state (second exponent): two-exponential decay
Description: Upon direct flash photoexcitation of deoxygenated solutions of MCD 1–4, signals corresponding to triplet–triplet (T–T) absorption were not observed due to the low efficiency of intersystem crossing to the triplet (T) state, in comparison with competing processes of nonradiative deactivation of excited states of dye molecules, which is common for MCD [41]. Complexation with dsDNA hinders these competing processes, which leads to an increase in the quantum yield of the T state of MCD. In the presence of dsDNA, under direct photoexcitation, the signals of T states of MCD 1–3 were detected, and their different T–T absorption spectra were measured (Figure 10).
Quantum yields of intersystem crossing to the triplet state (ΦST) of MCD 1–3 in the presence of dsDNA were estimated by flash photolysis using optical actinometry (see Materials and Methods). The obtained values of ΦST for MCD 1–3 were 2.6 ± 0.4%, 5.7 ± 0.8%, and 10.7 ± 1.5%, respectively.
The spectral–kinetic characteristics of the T state of MCD were studied by flash photolysis. The experiment was carried out on a setup with excitation by a xenon lamp (lamp flash energy ~50 J, duration τ1/2 = 10 μs). When registering T states, the solutions were deoxygenated using a vacuum setup. The manometric unit was used to determine the air pressure in a series of experiments on T state quenching by dissolved oxygen. The T state of MCD 4 in PBS solution in the presence of dsDNA was obtained by energy transfer from the triplet level of sodium naphthalene-2-sulfonate (ET~21,000 cm^−1 [83]). The quantum yields of T states (ΦT) of the dyes in the presence of dsDNA were estimated actinometrically. Dyes with known ΦT were used as actinometers: the xanthene dye Acid Red 87 (ΦT = 0.8 (aq); [84]) and the cyanine dye 3,3′-diethyl-9-methoxythiacarbocyanine iodide (ΦT = 0.16–0.20 in n-propanol; [85]).

[3] = cdsDNA = 1 × 10^−4 mol L^−1, compared to the initial spectra in PBS

SMILES: CC[N+](CC)(CC)CCC[n+]1ccc(/C=C2\Sc3ccccc3N2C)c2ccc(O)cc21 [MCD 1]
- Ifl/Ifl0, relative increase in the fluorescence intensity [1]: about 425 times
- φfl^b, fluorescence quantum yield of the dye in the presence of biopolymer [1]: 13 ± 1.5%
- LOD ([1]; detection of dsDNA): 7.2 nM
- LOD ([1]; dsDNA): about 10^−8 mol L^−1
- LOQ ([1]; dsDNA): about 10^−8 mol L^−1
- nHill, Hill coefficient ([1]; dsDNA): 1.04
- nSc, stoichiometric coefficient (Scatchard) ([1]; dsDNA): 2
- KeffHill, effective complexation constant (Hill) ([1]; dsDNA): 53400 L/mol
- KeffBH, effective complexation constant (Benesi–Hildebrand) ([1]; dsDNA): 54000 L/mol
- αb, proportion of bound dye ([1]; dsDNA): ~80%
- αb, proportion of bound dye ([1]; dsDNA, listed as 1): 80%
- K2Sc, complexation constant (Scatchard) ([1]; dsDNA): 169000 L/mol
- Fmax/F0, fluorescence growth at 100% binding ([1]; dsDNA): 460
- K1Sc, complexation constant (Scatchard) ([1]; dsDNA): 793000 L/mol
- hypochromia of the absorption band ([1]; high concentrations of dsDNA): 8%
- LOQ ([1]; quantification of dsDNA): 21 nM
- k1, decay rate constant of the T state (first exponent) [2]: ~ 9.9 × 10^3 s^−1
- k2, decay rate constant of the T state (second exponent) [2]: ~2000 s⁻¹

SMILES: CCN1/C(=C/c2sc3ccccc3[n+]2CC)Sc2ccccc21 [MCD 3]
- Ifl/Ifl0, relative increase in the fluorescence intensity [1]: 79 times
- hypochromia of the absorption band [1, 3]: 44%
- φfl^b, fluorescence quantum yield of the dye in the presence of biopolymer [1]: 4.8 ± 0.5%
- LOD ([1]; detection of dsDNA): 41 nM
- nHill, Hill coefficient ([1]; dsDNA): 0.88
- nSc, stoichiometric coefficient (Scatchard) ([1]; dsDNA): 35
- KeffHill, effective complexation constant (Hill) ([1]; dsDNA): 6900 L/mol
- KeffBH, effective complexation constant (Benesi–Hildebrand) ([1]; dsDNA): 13500 L/mol
- αb, proportion of bound dye ([1]; dsDNA): 40%
- K2Sc, complexation constant (Scatchard) ([1]; dsDNA): 480000 L/mol
- Fmax/F0, fluorescence growth at 100% binding ([1]; dsDNA): 136
- K1Sc, complexation constant (Scatchard) ([1]; dsDNA): 135000 L/mol
- LOQ ([1]; quantification of dsDNA): 126 nM
- kqO2, rate constant of triplet state quenching by dissolved oxygen ([2]; main (short-lived) component): 3.6e+08 M⁻¹ s⁻¹
- k1, decay rate constant of the T state (first exponent) [2]: ~ 1.3 × 10^4 s^−1
- k2, decay rate constant of the T state (second exponent) [2]: ~ 4 × 10^3 s^−1

SMILES: CCN1/C(=C/c2ccc3ccccc3[n+]2CC)C=Cc2ccccc21 [MCD 4]
- Ifl/Ifl0, relative increase in the fluorescence intensity [1]: 115 times
- hypochromia of the absorption band [1, 3]: 36%
- φfl^b, fluorescence quantum yield of the dye in the presence of biopolymer [1]: ~1.5 ± 0.2%
- LOD ([1]; detection of dsDNA): 94 nM
- nHill, Hill coefficient ([1]; dsDNA): 0.62
- nSc, stoichiometric coefficient (Scatchard) ([1]; dsDNA): 2
- KeffHill, effective complexation constant (Hill) ([1]; dsDNA): 1850 L/mol
- KeffBH, effective complexation constant (Benesi–Hildebrand) ([1]; dsDNA): 19500 L/mol
- αb, proportion of bound dye ([1]; dsDNA): 46%
- K2Sc, complexation constant (Scatchard) ([1]; dsDNA): 37000 L/mol
- Fmax/F0, fluorescence growth at 100% binding ([1]; dsDNA): 169
- K1Sc, complexation constant (Scatchard) ([1]; dsDNA): 186000 L/mol
- LOQ ([1]; quantification of dsDNA): 210 nM
- τT, lifetime of the T state [2]: ~ 0.03 ms
